According to BindingDB's records for patent US20250214965 (Hangzhou Innogate Pharma, 2025):

Target: T1, Kinesin-like protein KIF18A (Homo sapiens, UniProt Q8NI77)
T1 sequence (Q8NI77 whole entry): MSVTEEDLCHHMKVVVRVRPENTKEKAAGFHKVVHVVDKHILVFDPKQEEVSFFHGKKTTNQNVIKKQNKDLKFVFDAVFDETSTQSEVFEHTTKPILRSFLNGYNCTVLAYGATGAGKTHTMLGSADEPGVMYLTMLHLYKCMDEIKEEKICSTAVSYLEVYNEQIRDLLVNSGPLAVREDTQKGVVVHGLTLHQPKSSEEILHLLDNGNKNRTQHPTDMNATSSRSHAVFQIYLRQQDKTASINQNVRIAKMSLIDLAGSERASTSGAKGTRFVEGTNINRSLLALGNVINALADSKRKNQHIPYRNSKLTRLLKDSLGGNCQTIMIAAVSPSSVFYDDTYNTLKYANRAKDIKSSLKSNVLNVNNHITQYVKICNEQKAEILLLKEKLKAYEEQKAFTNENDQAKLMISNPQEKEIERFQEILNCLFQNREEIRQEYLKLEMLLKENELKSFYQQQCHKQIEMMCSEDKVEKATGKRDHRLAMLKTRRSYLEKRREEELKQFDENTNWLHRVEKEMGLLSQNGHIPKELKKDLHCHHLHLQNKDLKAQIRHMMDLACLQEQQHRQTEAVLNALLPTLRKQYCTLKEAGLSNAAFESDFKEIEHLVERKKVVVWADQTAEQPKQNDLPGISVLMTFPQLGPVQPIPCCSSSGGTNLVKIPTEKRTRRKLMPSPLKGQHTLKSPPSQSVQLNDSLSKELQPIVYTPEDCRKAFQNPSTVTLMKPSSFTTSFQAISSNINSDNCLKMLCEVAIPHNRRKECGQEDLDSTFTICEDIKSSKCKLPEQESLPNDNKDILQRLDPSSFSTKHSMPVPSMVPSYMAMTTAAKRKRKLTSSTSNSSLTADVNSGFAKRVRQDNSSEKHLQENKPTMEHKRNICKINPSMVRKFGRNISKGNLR
Assay: Inhibition of KIF18A Enzyme Activity
Method: The ADP-Glo method was used to test the enzymatic activity of KIF18A. The compound was diluted 3-fold with DMSO at a starting concentration of 3000 nM, for a total of ten concentrations, and tested in duplicate. Echo was used to transfer 25 nL of the diluted compound to a 384-well plate, and 2.5 μL of enzyme working solution was added. Plate was centrifuged at 1000 rpm for 1 min, and incubated at 25° C. for 10 min. 2.5 μL of ATP and substrate solution was added to start the reaction, and plate was incubated at 25° C. for 60 min. 4 μL of ADP-Glo solution was added to the 384-well plate, and plate was incubated at 25° C. for 40 min. 8 μL of detection solution was added and incubated at 25° C. for 40 min, and BMG was used to read the […] value. Inhibition rate was calculate according to the following formula: Inhibition rate (%)=(DMSO well−compound well)/(DMSO well−blank control well)×100%. The IC50 value of each compound was analyzed using the nonlinear regression method of XLFit 5.5.0 software. The formula is: Y=Bottom+(Top−Bottom)/(1+10^((Log IC50−X)*HillSlope)).

Structure (SMILES) | IC50
Cc1cc(NC(=O)c2ccc(NS(=O)(=O)[C@H](C)CO)cc2N2CCC(=C(F)F)CC2)nc(N2CCC(F)(F)CC2)c1 [US20250214965, Compound 82] | < 0.05 µM
Cc1cc(NC(=O)c2ccc(NS(=O)(=O)[C@H](C)CO)cc2N2CCC(=C(F)F)CC2)nc(N2CCC(F)(F)CC2)n1 [US20250214965, Compound 68] | < 0.05 µM
Cc1cc(NC(=O)c2ccc(NS(=O)(=O)[C@@H](C)CO)cc2N2CCC(=C(F)F)CC2)nc(N2CCC(F)(F)CC2)n1 [US20250214965, Compound 69] | < 0.1 µM

Results, then the molecule that gave them:

IC50 | Structure (SMILES)
< 0.05 µM | Cc1cc(NC(=O)c2ccc(NS(=O)(=O)CCO)cc2N2CCC3(CC2)CC3)nc(N2CCC(F)(F)CC2)c1F [US20250214965, Compound 85]
< 0.05 µM | Cc1cc(NC(=O)c2ccc(NS(=O)(=O)CCO)cc2N2CCC(=C(F)F)CC2)nc(N2CCC(F)(F)CC2)c1F [US20250214965, Compound 79]
